≈ marks a conversion by molar mass, not a printed value. Calls of active or inactive are those of the source. The rule behind the calls is not given here.
Assays:
[1] = tested on: Saccharomyces cerevisiae; assay: Antifungal activity against fluconazole resistant Saccharomyces cerevisiae overexpressing CgCdr1p transporter assessed as reduction in fungal growth incubated for 48 hrs by checkboard assay based microplate reader analysis; assay type: functional
[2] = tested on: Saccharomyces cerevisiae; assay: Antifungal activity against fluconazole resistant Saccharomyces cerevisiae overexpressing CgCdr2p transporter assessed as reduction in fungal growth incubated for 48 hrs by checkboard assay based microplate reader analysis; assay type: functional
[3] = tested on: Saccharomyces cerevisiae; assay: Indifferent antifungal activity against fluconazole resistant Saccharomyces cerevisiae overexpressing CgCdr1p transporter assessed as fractional inhibitory concentration index incubated for 48 hrs by checkboard assay based microplate reader analysis; assay type: functional
[4] = tested on: Saccharomyces cerevisiae; assay: Indifferent antifungal activity against fluconazole resistant Saccharomyces cerevisiae overexpressing CgCdr2p transporter assessed as fractional inhibitory concentration index incubated for 48 hrs by checkboard assay based microplate reader analysis; assay type: functional
[5] = tested on: Saccharomyces cerevisiae; assay: Indifferent antifungal activity against fluconazole resistant Saccharomyces cerevisiae overexpressing CgCdr1p transporter assessed as reduction in fungal growth incubated for 48 hrs in presence of lapachone by checkboard assay based microplate reader analysis; assay type: functional
[6] = tested on: Saccharomyces cerevisiae; assay: Indifferent antifungal activity against fluconazole resistant Saccharomyces cerevisiae overexpressing CgCdr2p transporter assessed as reduction in fungal growth incubated for 48 hrs in presence of lapachone by checkboard assay based microplate reader analysis; assay type: functional
[7] = tested on: Saccharomyces cerevisiae; assay: Indifferent antifungal activity against fluconazole resistant Saccharomyces cerevisiae overexpressing CgCdr1p transporter assessed as fractional inhibitory concentration incubated for 48 hrs in presence of lapachone by checkboard assay based microplate reader analysis; assay type: functional
[8] = tested on: Saccharomyces cerevisiae; assay: Indifferent antifungal activity against fluconazole resistant Saccharomyces cerevisiae overexpressing CgCdr2p transporter assessed as fractional inhibitory concentration incubated for 48 hrs in presence of lapachone by checkboard assay based microplate reader analysis; assay type: functional
[9] = tested on: Saccharomyces cerevisiae; assay: Indifferent antifungal activity against fluconazole resistant Saccharomyces cerevisiae overexpressing CgCdr1p transporter assessed as reduction in fungal growth incubated for 48 hrs in presence of fluconazole by checkboard assay based microplate reader analysis; assay type: functional
[10] = tested on: Saccharomyces cerevisiae; assay: Indifferent antifungal activity against fluconazole resistant Saccharomyces cerevisiae overexpressing CgCdr2p transporter assessed as reduction in fungal growth incubated for 48 hrs in presence of fluconazole by checkboard assay based microplate reader analysis; assay type: functional
[11] = tested on: Saccharomyces cerevisiae; assay: Indifferent antifungal activity against fluconazole resistant Saccharomyces cerevisiae overexpressing CgCdr1p transporter assessed as fractional inhibitory concentration in presence of fluconazole incubated for 48 hrs by checkboard assay based microplate reader analysis; assay type: functional
[12] = tested on: Saccharomyces cerevisiae; assay: Indifferent antifungal activity against fluconazole resistant Saccharomyces cerevisiae overexpressing CgCdr2p transporter assessed as fractional inhibitory concentration in presence of fluconazole incubated for 48 hrs by checkboard assay based microplate reader analysis; assay type: functional
[13] = tested on: Saccharomyces cerevisiae; assay: Antifungal activity against fluconazole resistant Saccharomyces cerevisiae overexpressing CgCdr1p transporter assessed as reduction in fungal growth at lower concentration incubated for 48 hrs by serial dilution method; assay type: functional, organism-based

Row | Compound | MIC [1] [µg/mL] | MIC [2] [µg/mL] | fractional inhibitory concentration index (FICI) [3] | fractional inhibitory concentration index (FICI) [4] | MIC [5] [µg/mL] | MIC [6] [µg/mL] | FIC [7] [µg/mL] | FIC [8] [µg/mL] | MIC [9] [µg/mL] | MIC [10] [µg/mL] | FIC [11] [µg/mL] | FIC [12] [µg/mL] | Activity [13]
1 | CC1(C)CC2=C(O1)C(=O)c1ccccc1C2=O | > 100 | 12.5 (≈ 54.8 µM) | 2 | 2 | > 100 | 12.5 | 1 | 1 | 500 | 62.5 | 1 | 1 | 
2 | OC(Cn1cncn1)(Cn1cncn1)c1ccc(F)cc1F |  |  |  |  |  |  |  |  |  |  |  |  | Active
3 | CC1(C)CCC2=C(O1)C(=O)c1ccccc1C2=O [ALPHA-LAPACHONE] | > 100 | > 62.5 | 2 | 2 | > 100 | > 100 | 1 | 1 | 500 | 62.5 | 1 | 1 | 

Reference: ChEMBL document CHEMBL5120826, “Effects of β-lapachone and β-nor-lapachone on multidrug efflux transporters and biofilms of Candida glabrata” (Bioorg Med Chem, 2022)
